Here are results for 27 molecules from patent US8415351B2 (priority 2007, dated 2013).

Usually EC50 stands for the midpoint of the concentration-response curve.

In assay [1] the test system is genotype 1a-H77 subgenomic replicon cell line. Put plainly: microbe, parasite or virus in culture. Format: cell-based, HCV. To be noted: read-out: EC50 1a.
The test system of assay [2] is genotype 1b-Con1 subgenomic replicon cell line. Kind of assay: microbe, parasite or virus in culture. Format: cell-based, HCV. To be noted: read-out: EC50 1b.

Read-outs that look alike come from different tables or passages of the source.

For `COc1c(/C=C/c2ccc(N(C(C)=O)S(C)(=O)=O)cc2)cc(N2CCC(=O)NC2=O)cc1C(C)(C)C` [IA-L1-1.11, (E)-N-(4-(3-tert-butyl-5-(2,4-dioxotetrahydropyrimidin-1(2H)-yl)-2-methoxystyryl)phenyl)-N-(methylsulfonyl)acetamide], the EC50 in assay [1] (Hepatitis C virus) and in assay [2] (Hepatitis C virus) was < 10 nM throughout.

`COc1c(-c2ccc3c(c2)CC[C@]3(F)CNS(C)(=O)=O)cc(-n2ccc(=O)[nH]c2=O)cc1C(C)(C)C` [IB-L0-2.10, (R)—N-((5-(3-tert-butyl-5-(2,4-dioxo-3,4-dihydropyrimidin-1(2H)-yl)-2-methoxyphenyl)-1-fluoro-2,3-dihydro-1H-inden-1-yl)methyl)methanesulfonamide]: the EC50 in assay [1] (Hepatitis C virus) and in assay [2] (Hepatitis C virus) was < 10 nM throughout.

Regarding `COCCN(C)C(=O)c1cc(NS(C)(=O)=O)ccc1/C=C/c1cc(-n2ccc(=O)[nH]c2=O)cc(C(C)(C)C)c1OC` [IB-L1-1.24, 2-{(E)-2-[3-tert-butyl-5-(2,4-dioxo-3,4-dihydro-2H-pyrimidin-1-yl)-2-methoxy-phenyl]-vinyl}-5-methanesulfonylamino-N-(2-methoxy-ethyl)-N-methyl-benzamide], the EC50 in assay [1] (Hepatitis C virus) is 10 to 100 nM; in assay [2] (Hepatitis C virus), < 10 nM.

Take `COc1c(-c2ccc3cc(NS(C)(=O)=O)ccc3c2)cc(N2CCC(=O)NC2=O)cc1C(C)(C)C` [IA-L0-2.9, N-(6-(3-tert-butyl-5-(2,4-dioxotetrahydropyrimidin-1(2H)-yl)-2-methoxyphenyl)naphthalen-2-yl)methanesulfonamide]: the EC50 in assay [1] (Hepatitis C virus) and in assay [2] (Hepatitis C virus) was < 10 nM each time.

For `COc1c(-c2ccc3cc(NS(C)(=O)=O)ccc3c2)cc(-n2ccc(=O)[nH]c2=O)cc1C(C)(C)C` [IB-L0-2.3, N-(6-(3-tert-butyl-5-(2,4-dioxo-3,4-dihydropyrimidin-1(2H)-yl)-2-methoxyphenyl)naphthalen-2-yl)methanesulfonamide], the EC50 in assay [1] (Hepatitis C virus) and in assay [2] (Hepatitis C virus) was < 10 nM in each case.

Take `COc1c(-c2nc3ccccc3s2)cc(N2CCC(=O)NC2=O)cc1C(C)(C)C` [IA-L0-2.3, 1-(3-(benzo[d]thiazol-2-yl)-5-tert-butyl-4-methoxyphenyl)dihydro pyrimidine-2,4(1H,3H)-dione]: the EC50 in assay [1] (Hepatitis C virus) and in assay [2] (Hepatitis C virus) was 100 to 1000 nM in each case.

As to `COc1ccc2cc(-c3cc(-n4ccc(=O)[nH]c4=O)cc(C(C)(C)C)c3OC)ccc2c1` [IB-L0-2.2, 1-(3-tert-butyl-4-methoxy-5-(6-methoxynaphthalen-2-yl)phenyl)pyrimidine-2,4(1H,3H)-dione], the EC50 in assay [1] (Hepatitis C virus) and in assay [2] (Hepatitis C virus) was > 1000 nM throughout.

Consider `CNC(=O)c1cc(NS(C)(=O)=O)ccc1/C=C/c1cc(-n2ccc(=O)[nH]c2=O)cc(C(C)(C)C)c1OC` [IB-L1-1.17, 2-{(E)-2-[3-tert-butyl-5-(2,4-dioxo-3,4-dihydro-2H-pyrimidin-1-yl)-2-methoxy-phenyl]-vinyl}-5-methanesulfonylamino-N-methyl-benzamide], for which the EC50 in assay [1] (Hepatitis C virus) is 10 to 100 nM; in assay [2] (Hepatitis C virus), < 10 nM.

As for `COc1c(/C=C/c2ccc(NS(C)(=O)=O)cc2CN2CCCC2)cc(-n2ccc(=O)[nH]c2=O)cc1C(C)(C)C` [IB-L1-1.33, N-(4-{(E)-2-[3-tert-Butyl-5-(2,4-dioxo-3,4-dihydro-2H-pyrimidin-1-yl)-2-methoxy-phenyl]-vinyl}-3-pyrrolidin-1-ylmethyl-phenyl)-methanesulfonamide], the results for the EC50 in assay [1] (Hepatitis C virus) and in assay [2] (Hepatitis C virus) were 100 to 1000 nM and 10 to 100 nM, respectively.

As to `COc1c(-c2ccc3c(c2)CC=C3C(C)(C)NS(C)(=O)=O)cc(-n2ccc(=O)[nH]c2=O)cc1C(C)(C)C` [IB-L0-2.41, N-(2-(6-(3-tert-butyl-5-(2,4-dioxo-3,4-dihydropyrimidin-1(2H)-yl)-2-methoxyphenyl)-1H-inden-3-yl)propan-2-yl)methanesulfonamide], the EC50 in assay [1] (Hepatitis C virus) and in assay [2] (Hepatitis C virus) was 100 to 1000 nM in each case.

As to `COc1c(-c2ccc3c(c2)CNC3=O)cc(-n2ccc(=O)[nH]c2=O)cc1C(C)(C)C` [IB-L0-2.30, 1-(3-tert-butyl-4-methoxy-5-(1-oxoisoindolin-5-yl)phenyl)-pyrimidine-2,4(1H,3H)-dione], the EC50 in assay [1] (Hepatitis C virus) was in the range of 100 to 1000 nM; in assay [2] (Hepatitis C virus), 10 to 100 nM.

In the case of `COc1c(-c2ccc3c(c2)/C(=N/NS(C)(=O)=O)CC3)cc(-n2ccc(=O)[nH]c2=O)cc1-c1ccco1` [IB-L0-2.55, (E)-N′-(6-(5-(2,4-dioxo-3,4-dihydropyrimidin-1(2H)-yl)-3-(furan-2-yl)-2-methoxyphenyl)-2,3-dihydro-1H-inden-1-ylidene)methanesulfonohydrazide], the EC50 in assay [1] (Hepatitis C virus) was 10 to 100 nM; in assay [2] (Hepatitis C virus), < 10 nM.

As to `COc1c(/C=C/c2ccc(NS(C)(=O)=O)cc2)cc(-n2ccc(=O)[nH]c2=O)cc1-c1ccoc1` [IB-L1-1.50, (E)-N-(4-(5-(2,4-dioxo-3,4-dihydropyrimidin-1(2H)-yl)-3-(furan-3-yl)-2-methoxystyryl)phenyl)methanesulfonamide], the EC50 in assay [1] (Hepatitis C virus) lay within 100 to 1000 nM; in assay [2] (Hepatitis C virus), 10 to 100 nM.

For the molecule `CC(C)(C)c1cc(NC(=O)c2ccc(NS(C)(=O)=O)cc2)cc(N2CCC(=O)NC2=O)c1` [IA-L3-1.84, N-(3-tert-butyl-5-(2,4-dioxotetrahydropyrimidin-1(2H)-yl)phenyl)-4-(methylsulfonamido) benzamide], the EC50 in assay [1] (genotype 1a-H77 replicon, luciferase reporter) was > 1000 nM; in assay [2] (genotype 1b-Con1 replicon, luciferase reporter) it was > 1000 nM.

Regarding `COc1c(/C=C/c2ccc(NS(C)(=O)=O)cc2)cc(-n2ccc(=O)[nH]c2=O)cc1-c1cccs1` [IB-L1-1.48, (E)-N-(4-(5-(2,4-dioxo-3,4-dihydropyrimidin-1(2H)-yl)-2-methoxy-3-(thiophen-2-yl)styryl)phenyl)methanesulfonamide], the EC50 was 100 to 1000 nM in assay [1] (Hepatitis C virus) and < 10 nM in assay [2] (Hepatitis C virus).

Regarding `COC(=O)c1cc(-n2ccc(=O)[nH]c2=O)cc(-c2ccc3cc(NS(C)(=O)=O)ccc3c2)c1OC` [IB-L0-2.72, methyl 5-(2,4-dioxo-3,4-dihydropyrimidin-1(2H)-yl)-2-methoxy-3-(6-(methylsulfonamido)naphthalen-2-yl)benzoate], the EC50 in assay [1] (Hepatitis C virus) was > 1000 nM; in assay [2] (Hepatitis C virus) it was 100 to 1000 nM.

For the molecule `COc1ccc(/C=C/c2cc(N3CCC(=O)NC3=O)cc(C(C)(C)C)c2OC)cc1` [IA-L1-1.14, (E)-1-(3-tert-butyl-4-methoxy-5-(4-methoxystyryl)phenyl) dihydropyrimidine-2,4(1H,3H)-dione], the EC50 in assay [1] (Hepatitis C virus) and in assay [2] (Hepatitis C virus) was > 1000 nM in each case.

For `CO/C(=C\c1cc(N2CCC(=O)NC2=O)cc(C(C)(C)C)c1OC)c1ccc(NS(C)(=O)=O)cc1` [IA-L1-1.17, (Z)—N-(4-(2-(3-tert-butyl-5-(2,4-dioxotetrahydropyrimidin-1(2H)-yl)-2-methoxyphenyl)-1-methoxyvinyl)phenyl)methanesulfonamide], the EC50 in assay [1] (Hepatitis C virus) and in assay [2] (Hepatitis C virus) was 10 to 100 nM throughout.

On to `COc1c(-c2ccc3cc(NS(C)(=O)=O)ccc3c2)cc(-n2ccc(=O)[nH]c2=O)cc1C(F)(F)F` [IB-L0-2.56, N-(6-(5-(2,4-dioxo-3,4-dihydropyrimidin-1(2H)-yl)-2-methoxy-3-(trifluoromethyl)phenyl)naphthalen-2-yl)methanesulfonamide], for which the EC50 in assay [1] (Hepatitis C virus) was 100 to 1000 nM; in assay [2] (Hepatitis C virus), < 10 nM.

On to `COc1c(-c2ccc3ccccc3c2)cc(-n2ccc(=O)[nH]c2=O)cc1C(C)(C)C` [IB-L0-2.1, 1-(3-tert-butyl-4-methoxy-5-(naphthalen-2-yl)phenyl)pyrimidine-2,4(1H,3H)-dione], for which the EC50 was > 1000 nM in assay [1] (Hepatitis C virus) and 100 to 1000 nM in assay [2] (Hepatitis C virus).

In the case of `COc1c(/C=C/c2ccc(NS(C)(=O)=O)cc2)cc(-n2cc(Cl)c(=O)[nH]c2=O)cc1C(C)(C)C` [IB-L1-1.20, N-(4-{(E)-2-[3-tert-butyl-5-(5-chloro-2,4-dioxo-3,4-dihydro-2H-pyrimidin-1-yl)-2-methoxy-phenyl]-vinyl}-phenyl)-methanesulfonamide], the EC50 in assay [1] (Hepatitis C virus) is 10 to 100 nM; in assay [2] (Hepatitis C virus), < 10 nM.

For the molecule `COc1c(-c2ccc3nc(N)sc3c2)cc(-n2ccc(=O)[nH]c2=O)cc1C(C)(C)C` [IB-L0-2.27, 1-(3-(2-aminobenzo[d]thiazol-6-yl)-5-tert-butyl-4-methoxy-phenyl)pyrimidine-2,4(1H,3H)-dione], the EC50 in assay [1] (Hepatitis C virus) was 100 to 1000 nM; in assay [2] (Hepatitis C virus), 10 to 100 nM.

On to `COc1c(/C=C/c2ccc(NS(C)(=O)=O)cc2C=NO)cc(-n2ccc(=O)[nH]c2=O)cc1C(C)(C)C` [IB-L1-1.8, N-(4-{(E)-2-[3-tert-Butyl-5-(2,4-dioxo-3,4-dihydro-2H-pyrimidin-1-yl)-2-methoxy-phenyl]-vinyl}-3-(hydroxyimino-methyl)-phenyl)-methanesulfonamide], for which the figures for the concentration for a half-maximal effect (EC50) in assay [1] (Hepatitis C virus) and in assay [2] (Hepatitis C virus) were 10 to 100 nM and < 10 nM, respectively.

Take `COc1c(/C=C/c2ccc(NS(C)(=O)=O)c(F)c2)cc(N2CCC(=O)NC2=O)cc1C(C)(C)C` [IA-L1-1.26, (E)-N-(4-(3-tert-butyl-5-(2,4-dioxotetrahydropyrimidin-1(2H)-yl)-2-methoxystyryl)-2-fluorophenyl)methanesulfonamide]: the EC50 in assay [1] (Hepatitis C virus) and in assay [2] (Hepatitis C virus) was 10 to 100 nM in each case.

Turning to `COc1c(/C=C\c2ccc(NS(C)(=O)=O)cc2)cc(-n2ccc(=O)[nH]c2=O)cc1C(C)(C)C` [IB-L1-1.34, N-(4-{(Z)-2-[3-tert-Butyl-5-(2,4-dioxo-3,4-dihydro-2H-pyrimidin-1-yl)-2-methoxy-phenyl]-vinyl}-phenyl)-methanesulfonamide], the figures for the EC50 in assay [1] (Hepatitis C virus) and in assay [2] (Hepatitis C virus) were 10 to 100 nM and < 10 nM, respectively.

Take `COCC(C)(C)c1cc(-n2ccc(=O)[nH]c2=O)cc(-c2ccc3cc(NS(C)(=O)=O)ccc3c2)c1OC` [IB-L0-2.66, N-(6-(5-(2,4-dioxo-3,4-dihydropyrimidin-1(2H)-yl)-2-methoxy-3-(1-methoxy-2-methylpropan-2-yl)phenyl)naphthalen-2-yl)methanesulfonamide]: the EC50 in assay [1] (Hepatitis C virus) was 100 to 1000 nM; in assay [2] (Hepatitis C virus) it was 10 to 100 nM.

For `COc1c(-c2nc3ccc(NS(C)(=O)=O)cc3o2)cc(N2CCC(=O)NC2=O)cc1C(C)(C)C` [IA-L0-2.5, N-(2-(3-tert-butyl-5-(2,4-dioxotetrahydropyrimidin-1(2H)-yl)-2-methoxyphenyl)benzo[d]oxazol-6-yl)methanesulfonamide], the EC50 in assay [1] (Hepatitis C virus) and in assay [2] (Hepatitis C virus) was > 1000 nM in each case.
